Measured values reported in patent US20020111355A1, “Cyclic urea and cyclic amide derivatives” (American Home Products Corporation, priority 1999, published 2002).
pIC50: −log10 of the molar value.

Legend:
[1] = system: rat uterine decidualization; assay: Rat decidualization assay; conditions: average over dose-response curves; decidual response; s.c.
T47D cells = assay: T47D cell proliferation assay (BrdU incorporation); format: cell-based; conditions: Homo sapiens, decrease in trimegestone induced BrdU incorporation (0.03 nM trimegestone), individual studies
Method: 3. T47D Cell Proliferation Assay
The objective of this assay is the determination of progestational and antiprogestational potency by using a cell proliferation assay in T47D cells. A compound's effect on DNA synthesis in T47D cells is measured.
DMEM:F12 (1:1) (GIBCO, BRL) supplemented with 10% (v/v) fetal bovine serum (not heat-inactivated), 100 U/ml penicillin, […], and 2 mM GlutaMax (GIBCO, BRL).
Minimum Essential Medium (MEM) (#51200-038GIBCO, BRL) phenol red-free supplemented with 0.5% charcoal stripped fetal bovine serum, 100 U/ml penicillin, […] streptomycin, and 2 mM GlutaMax (GIBCO, BRL). […]
At the end of BrdU labeling, the medium is removed and BrdU incorporation is measured using a cell proliferation ELISA kit (#RPN 250, Amersham Life Science) according to manufacturer's instructions. […] Then 25 μl of 1 M sulfuric acid is added to each well to stop color reaction and optical density is read in a plate reader at 450 nm within 5 min.
Square root-transformed data are used for analysis of variance and nonlinear dose response curve fitting for both agonist and antagonist modes. […] EC50 or IC50 values are calculated from the retransformed values. […]

With `C#C[C@]1(O)CC[C@H]2[C@@H]3CCC4=CC(=O)CC[C@@H]4[C@H]3C(=C)C[C@@]21CC` [3-Ketodesogestrel] the “average EC50” value [1] was 0.10 mg/kg. s.c.

`CC1(C)OC(=O)Nc2ncc(-c3cccc(Cl)c3)cc21` [Example 4, 6-(3-Chloro-phenyl)-4,4-dimethyl-1,4-dihydro-3-oxa-1,8-diaza-naphthalene-2-one] gave a melting point of 214 to 215 °C.

In the case of `C#C[C@]1(O)CC[C@H]2[C@@H]3CCC4=CC(=O)CC[C@@H]4[C@H]3CC[C@@]21CC` [Levonorgestrel], the “average EC50” value [1] was 0.10 mg/kg. s.c.

In the case of `CC#C[C@]1(O)CC[C@H]2[C@@H]3CCC4=CC(=O)CCC4=C3[C@@H](c3ccc(N(C)C)cc3)C[C@@]21C` [RU486], the pIC50 (T47D cells) was 10.96.
